Among the data in patent publication US20250042889A1, “3CLPRO PROTEASE INHIBITOR” (SHANGHAI QILU PHARMACEUTICAL RESEARCH AND DEVELOPMENT …, priority 2021, published 2025) are IC50 values, retold here.

Bounds are passed on as bounds.

The test addresses SARS-COV-2 3CLpro/Mpro protease (Severe acute respiratory syndrome coronavirus 2 (2019-nCoV) (SARS-CoV-2), UniProt P0DTD1). The test can be described thus: Inhibitory effect on SARS-COV-2 3CLpro/Mpro protease by fluorescence resonance energy transfer. The format is biochemical. The conditions noted are these: activity intervals A-D, read-out: IC50 (nM), Inhibition on SARS-CoV-2 3CLpro/Mpro protease.
Consider `O=C(c1cc(Br)cc([N+](=O)[O-])c1N[C@@H]1CCCN(C(=O)c2cnnc3ccccc23)C1)N1CCCCC1` [Example 56], for which the IC50 lay within 10 to 50 nM.

Consider `O=C(N[C@H]1CCCC[C@H]1Nc1c(C(=O)N2CCCCC2)cc(Br)cc1[N+](=O)[O-])c1cncc(Br)c1` [Example 14], for which the IC50 was 10 to 50 nM.

Turning to `O=C1C[C@@H](C(=O)N2CCC[C@@H](Nc3c(C(=O)N4CCCCC4)cc(Br)cc3[N+](=O)[O-])C2)c2ccccc2N1` [Example 265], the IC50 lay in the range of 10 to 50 nM.

On to `CNc1cncc(C(=O)N2C[C@H](Nc3c(C(=O)N4C[C@@H](C)O[C@@H](C)C4)cc(Br)cc3[N+](=O)[O-])C[C@H]2C(=O)Nc2ncc(Br)cn2)c1` [Example 445, (2S,4R)-4-((4-bromo-2-((2R,6S)-2,6-dimethylmorpholin-4-carbonyl)-6-nitrophenyl)amino)-N-(5-bromopyrimidin-2-yl)-1-(5-(methylamino)nicotinoyl) pyrrolidine-2-formamide], for which the IC50 fell in the range of 50 to 100 nM.

As for `CNc1cncc(C(=O)N2C[C@H](Nc3c(C(=O)N4C[C@@H](C)O[C@@H](C)C4)cc(Br)cc3[N+](=O)[O-])CC2C(=O)NCC(F)(F)F)c1` (stereo partly shown) [Example 380], the IC50 lay within 10 to 50 nM.

In the case of `C[C@@H]1CN(C(=O)c2cc(Br)cc([N+](=O)[O-])c2N[C@@H]2CCCN(C(=O)c3cncc4[nH]ccc34)C2)C[C@H](C)O1` [Example 17], the IC50 was in the range of 10 to 50 nM.

Consider `CNc1cnc(F)c(C(=O)N2C[C@H](Nc3c(C(=O)N4C[C@@H](C)O[C@@H](C)C4)cc(Br)cc3[N+](=O)[O-])[C@@H](OC)C2)c1` [Example 406], for which the IC50 fell in the range of 50 to 100 nM.

Turning to `CNc1cncc(C(=O)N2CCC[C@@H](Nc3c(C(=O)N4CCC5(CCCO5)CC4)cc(Br)cc3[N+](=O)[O-])C2)c1` [Example 268], the IC50 was below 10 nM.

Turning to `CNc1cncc(C(=O)N2C[C@H](Nc3c(C(=O)N4C[C@@H](C)O[C@@H](C)C4)cc(Br)cc3[N+](=O)[O-])C[C@H]2C(=O)Nc2nn(CCOC)cc2Br)c1` [Example 418, (2S,4R)-4-((4-bromo-2-((2R,6S)-2,6-dimethylmorpholin-4-carbonyl)-6-nitrophenyl)amino)-1-(5-(methylamino)nicotinoyl)-N-(4-bromo-1-(2-methoxyethyl)-1H-pyrazol-3-yl) pyrrolidine-2-formamide], the IC50 lay within 50 to 100 nM.

For the molecule `CNc1cncc(C(=O)N2CCC[C@@H](Nc3c(C(=O)N4CCC(C)CC4)cc(Br)cc3[N+](=O)[O-])C2)c1` [Example 248], the IC50 was in the range of 10 to 50 nM.

`CNc1cncc(C(=O)N2CCC[C@@H](Nc3c(C(=O)N4CCC=C(C)C4)cc(Br)cc3[N+](=O)[O-])C2)c1` [Example 310]: the IC50 lay within 10 to 50 nM.

As for `CNc1cncc(C(=O)N2C[C@H](Nc3c(C(=O)N4C[C@@H](C)O[C@@H](C)C4)cc(Br)cc3[N+](=O)[O-])C[C@H]2C(=O)N2CC(O)C2)c1` [Example 386], the IC50 lay within 50 to 100 nM.

Consider `CNc1cncc(C(=O)N2CCC[C@@H](Nc3c(C(=O)N4CCO[C@H](CCl)C4)cc(Br)cc3[N+](=O)[O-])C2)c1` [Example 341], for which the IC50 is 10 to 50 nM.

With `O=C(c1cncc(OC(F)F)c1)N1CCC[C@@H](Nc2c(C(=O)N3CCCCC3)cc(Br)cc2[N+](=O)[O-])C1` [Example 61], the IC50 lay within 50 to 100 nM.

In the case of `CNc1cncc(C(=O)N2CCC[C@@H](Nc3c(C(=O)N4CCN(C5CCOCC5)CC4)cc(Br)cc3[N+](=O)[O-])C2)c1` [Example 235], the IC50 lay in the range of 10 to 50 nM.

Turning to `CNc1cncc(C(=O)N2C[C@H](Nc3c(C(=O)N4C[C@@H](C)O[C@@H](C)C4)cc(Br)cc3[N+](=O)[O-])C[C@H]2C(=O)Nc2cccc(Br)c2)c1` [Example 370], the IC50 is 50 to 100 nM.

Regarding `CNc1cncc(C(=O)N2C[C@H](Nc3c(C(=O)N4C[C@@H](C)O[C@@H](C)C4)cc(Br)cc3[N+](=O)[O-])C[C@H]2C(=O)NCc2ccnc(NC)c2)c1` [Example 430], the IC50 lay within 100 to 200 nM.

Consider `O=C(c1cc(Br)[nH]c(=O)c1)N1CCC[C@@H](Nc2c(C(=O)N3CCC(F)(F)CC3)cc(Br)cc2[N+](=O)[O-])C1` [Example 150], for which the IC50 was 50 to 100 nM.

For the molecule `CNC(=O)[C@@H]1C[C@@H](Nc2c(C(=O)N3C[C@@H](C)O[C@@H](C)C3)cc(Br)cc2[N+](=O)[O-])CN1C(=O)c1cncc(NC)c1` [Example 366], the IC50 lay in the range of 10 to 50 nM.

For the molecule `COCCN1CCN(C(=O)c2cc(Br)cc([N+](=O)[O-])c2N[C@H]2CN(C(=O)c3cncc(I)c3)CC2(C)C)CC1` [Example 190], the IC50 was 10 to 50 nM.

For the molecule `O=C(c1cc(Br)cc([N+](=O)[O-])c1N[C@@H]1CCCN(C(=O)C2CNCC(F)(F)C2)C1)N1CCCC(F)(F)C1` (stereo in doubt) [Example 331], the IC50 lay in the range of 10 to 50 nM.

As for `CNc1cncc(C(=O)N2CCC[C@@H](Nc3c(C(=O)N4C[C@@H](C)O[C@@H](C(F)(F)F)C4)cc(Br)cc3[N+](=O)[O-])C2)c1` [Example 349], the IC50 was 10 to 50 nM.

Take `CNc1cncc(C(=O)N2CC(Nc3c(C(=O)N4C[C@@H](C)N(CCOC)[C@@H](C)C4)cc(Br)cc3[N+](=O)[O-])C(F)(F)C2)c1` (stereo partly shown) [Example 178]: the IC50 was 50 to 100 nM.

`Nc1cncc(C(=O)N2CCC[C@@H](Nc3c(C(=O)N4CCC(F)(F)CC4)cc(Br)cc3[N+](=O)[O-])C2)c1` [Example 71]: the IC50 lay in the range of 10 to 50 nM.

In the case of `O=C(c1cc(Br)cc([N+](=O)[O-])c1N[C@@H]1CCCN(C(=O)c2cc(=O)[nH]c3ccccc23)C1)N1CCOCC1` [Example 119], the IC50 was 10 to 50 nM.

In the case of `N#Cc1cncc(C(=O)N2CCC[C@@H](Nc3c(C(=O)N4CCCCC4)cc(Br)cc3[N+](=O)[O-])C2)c1` [Example 41], the IC50 is 10 to 50 nM.

In the case of `C[C@@H]1CN(C(=O)c2cc(Br)cc([N+](=O)[O-])c2N[C@@H]2CCCN(C(=O)c3cc(=O)[nH]c4ccccc34)C2)C[C@H](C)N1` [Example 139], the IC50 was in the range of 10 to 50 nM.

Take `CO[C@H]1CN(C(=O)c2cncc3[nH]nnc23)C[C@@H]1Nc1c(C(=O)N2C[C@@H](C)O[C@@H](C)C2)cc(Br)cc1[N+](=O)[O-]` [Example 454, (5-Bromo-2-(((3S,4S)-4-methoxy-1-(2-methyl-3H-1,2,3-triazole[4,5-c]pyridin-7-carbonyl)pyrrolidin-3-yl)amino)-3-nitrophenyl)((2S,6R)-2,6-dimethylmorpholinyl)methanone]: the IC50 lay within 10 to 50 nM.

In the case of `CNc1cncc(C(=O)N2C[C@H](Nc3c(C(=O)N4C[C@@H](C)O[C@@H](C)C4)cc(Br)cc3[N+](=O)[O-])[C@@H](OCc3ncco3)C2)c1` [Example 460], the IC50 fell in the range of 10 to 50 nM.

In the case of `CNc1cncc(C(=O)N2C[C@H](Nc3c(C(=O)N4C[C@@H](C)O[C@H](C)C4)cc(Br)cc3[N+](=O)[O-])C(F)(F)C2)c1` [Example 199], the IC50 lay in the range of 50 to 100 nM.

As for `O=C(c1cc(Br)cc([N+](=O)[O-])c1N[C@@H]1CCCN(C(=O)[C@H]2CNCC(F)(F)C2)C1)N1CCO[C@H](C(F)(F)F)C1` [Example 330], the IC50 was in the range of 10 to 50 nM.

Turning to `CNc1cncc(C(=O)N2CCC[C@@H](Nc3c(C(=O)N4CCc5nn(C)cc5C4)cc(Br)cc3[N+](=O)[O-])C2)c1` [Example 313], the IC50 was 10 to 50 nM.

Regarding `CNc1cncc(C(=O)N2C[C@H](Nc3c(C(=O)N4C[C@@H](C)O[C@@H](C)C4)cc(Br)cc3[N+](=O)[O-])C[C@H]2C(=O)Nc2ccc(C(F)(F)F)nc2)c1` [Example 416], the IC50 was in the range of 100 to 200 nM.

Turning to `CNc1cncc(C(=O)N2C[C@H](Nc3c(C(=O)N4C[C@@H](C)O[C@@H](C)C4)cc(Br)cc3[N+](=O)[O-])C[C@H]2C(=O)Nc2ccccc2)c1` [Example 387], the IC50 was in the range of 10 to 50 nM.
